In patent US8263562B2, “Peptides for preventing or treating liver damage” (priority 2006, dated 2012):

Legend:
[1] = system: D-aminogalactose-induced acute liver damage; assay: D-aminogalactose-induced acute liver damage of rats; type: in vivo, Wistar Rats; conditions: 13.5 mg/kg intraperitoneal, every day for 7 days
Source text: Wistar Rats (body weight of each was 180 g˜220 g; half of them were male and the others were female; and they were purchased from Shanghai Slac Laboratory Animal, Inc.) were divided randomly into 6 groups as follows with 10 rats in each group: (1) the diammonium glycyrrhizinate injection group, injected with diammonium glycyrrhizinate; (2) the high dose group, immunized with Peptide A and adjuvant; (3) the medium dose group, immunized with Peptide A and adjuvant; (4) the low dose group, immunized with Peptide A and adjuvant; (5) the blank control group; and (6) the model group.
Rats in the high dose group, the medium dose group and the low dose group were immunized as follows: At Day 0, the first immunization was performed by the following process: 100 μl of Peptide A dissolved in physiological saline was mixed thoroughly with the equivalent volume of Freund's complete adjuvant, and then 0.2 ml of the resultant water-in-oil emulsion was administered via subcutaneous injection to each rat, wherein the dosage of Peptide A contained in the emulsion was 174 μg/kg rat body weight for the high dose group, 87 μg/kg rat body weight for the medium dose group, and 43.5 μg/kg rat body weight for the low dose group respectively. 14 days later, the second immunization was performed in the same dosage and manner as the first immunization except that, Freund's complete adjuvant was replaced by Freund's incomplete adjuvant. […]
At the 48th hour after intraperitoneally injecting D-aminogalactose, each rat was sacrificed by cervical dislocation, and blood was collected. After sera were isolated, according to the specification of the manufacturer, the activities of glutamic-pyruvic transaminase (SGPT) and glutamic-oxalacetic transaminase (SGOT) in sera were detected respectively by using Glutamic-pyruvic Transaminase Detection Kit (purchased from Nanjing Jiancheng Bioengineering Institute) and Glutamic-oxalacetic Transaminase Detection Kit (purchased from Nanjing Jiancheng Bioengineering Institute).

[2] = system: BCG vaccine and lipopolysaccharide-induced immunological liver damage; type: in vivo, Wistar Rats; conditions: 13.5 mg/kg intraperitoneal, every day for 7 days
[3] = system: Sera of Patients with HCV (anti-HCV antibody-positive sera); assay: Indirect ELISA, reactivity of the peptides to anti-HCV antibody-positive sera; type: binding, human; conditions: for reactivity to sera of patients with HCV compared to sera of patients with HBV and healthy donors: X^2-test; for Percentage of Positive Cases (%) / The Number of Positive Cases: anti-HCV antibody-positive sera of 30 patients, sera dilution 1:100, 10 μg peptide coated
Method: Anti-HCV antibody-positive sera: randomly obtained from inpatients infected with HCV in the Liberation Army 302 Hospital from 2000 to 2001.
(§1) The reactivity of the individual peptide of the invention to sera was detected by standard indirect ELISA technology using Model DG3022 Enzyme-Linked Immunoassay Analyzer (purchased from Perkin Elmer Corporation). 10 μg of Peptide A, Peptide B, Peptide C, and Peptide Conjugate A were added respectively into the basic coating buffer (0.1 mol/L NaHCO3, 35 μl; 0.1 mol/L Na2CO3, 15 μl; H2O, 50 μl), and then transferred into the wells of polypropylene/ethylene microtiter plate, and placed at 4° C. overnight. After adding 120 μl of FCS-PBS, each well was blocked at 37° C. for 2 hours. Sera (dilution of 1:100) were then added to the wells, and incubated at 37° C. for 1 hour. Goat anti-human IgGs (dilution of 1:1000) (purchased from Sino-American Biotechnology Company, Beijing) were then added to the wells, and incubated at 37° C. for 1 hour. 50 μl of Solution A and Solution B (purchased from Beijing Kewei Reagent Company) were added to every well, placed in the dark for 5 min, and then the absorbance at 450 nm was measured.

[4] = system: sera of patients with HBV; assay: Indirect ELISA, reactivity of the peptides to sera of patients with Hepatitis B; type: binding, human; conditions: sera of 10 patients with HBV
Method: Sera of patients with Hepatitis B (HBV): obtained from inpatients with Hepatitis B in the Liberation Army 302 Hospital, who was positive for the surface antigen of Hepatitis B virus as assayed.
as §1

γ-IFN = assay: Level of γ-IFN in sera of immunized mice by ELISA; type: in vivo, BALB/c Mice; conditions: first day after the fourth immunization
Method: (§2) BALB/c Mice, all of which are male, 6 week old, and purchased from the Laboratory Animal Center of Academy Of Military Medical Sciences, Beijing, were divided into 4 groups as follows with 5 mice in each group: (1) the control group; (2) the Peptide A group, immunized with Peptide A; (3) the Peptide B group, immunized with Peptide B; and (4) the Peptide C group, immunized with Peptide C.
(§3) 50 μl of the peptide (100 μg/μl) used in the corresponding group and 50 μl of Freund's complete adjuvant (GIBCOBRL Corp.) were mixed thoroughly with a microstirrer, and the mixture was injected into the claw pad of a mouse, thereby the first immunization was performed for each of the mice. 14 days later, booster immunization was performed in the same manner as the first immunization with 50 μl of the peptide (100 μg/μl) used in the corresponding group and 50 μl of Freund's complete adjuvant (GIBCOBRL Corp.). 14 days later, another booster immunization was performed in the same manner. 14 days later, boost immunization was performed by injecting 100 μg of the peptide dissolved in 200 μl PBS into the mouse intramuscularly. During the process of immunization, only the corresponding adjuvant and PBS were injected for the control group. At the first day after the fourth immunization, mice were sacrificed and sera were collected.
(§4) According to the specification of the manufacturer, the levels of cytokines (i.e., IL-4, IL-10, and γ-IFN) in sera of the above immunized mice were detected respectively by using IL-4 Quantikine ELASA Kit, IL-10 Quantikine ELASA Kit, and γ-IFN Quantikine ELASA Kit (all of which are purchased from R&D, Inc.).

IL-10 = assay: Level of IL-10 in sera of immunized mice by ELISA; type: in vivo, BALB/c Mice; conditions: first day after the fourth immunization
Method: as §2, §3, §4

sera of healthy donors = assay: Indirect ELISA, reactivity of the peptides to control sera of healthy donors; type: binding, human; conditions: sera of 10 healthy donors
Method: Control sera: obtained from healthy blood donors, who had normal blood indexes in each assay.
as §1

IL-4 = assay: Level of IL-4 in sera of immunized mice by ELISA; type: in vivo, BALB/c Mice; conditions: first day after the fourth immunization
Method: as §2, §3, §4

Molecule: CC1(C)[C@@H](O[C@H]2O[C@H](C(=O)O)[C@@H](O)[C@H](O)[C@H]2O[C@@H]2O[C@H](C(=O)O)[C@@H](O)[C@H](O)[C@H]2O)CC[C@]2(C)[C@H]3C(=O)C=C4[C@@H]5C[C@@](C)(C(=O)O)CC[C@]5(C)CC[C@@]4(C)[C@]3(C)CC[C@@H]12.N.N [diammonium glycyrrhizinate injection, diammonium glycyrrhizinate, reference compound]
- protective effect on acute liver damage of rats (SGPT, SGOT) [1]: significant protective effect
- protective effect on liver damage of rats (SGPT, SGOT) [2]: no significant protective effect
- protective effect on liver damage of rats (pathological condition score) [2]: no significant protective effect

Molecule: GQTYTSGA [Peptide B]
- reactivity to sera of patients with HCV compared to sera of patients with HBV and healthy donors [3]: significantly react
- Percentage of Positive Cases (%) [3]: 50%
- The Number of Positive Cases [3]: 15
- reactivity in ELISA Assay to sera of patients with HBV [4]: negative
- γ-IFN(pg/ml serum) (γ-IFN): 28.46 ± 5.9 pg/ml serum
- IL-10(pg/ml serum) (IL-10): 27.94 ± 6.4 pg/ml serum
- reactivity in ELISA Assay to sera of healthy donors (sera of healthy donors): negative
- IL-4(pg/ml serum) (IL-4): 30.64 ± 4.9 pg/ml serum

Molecule: GQTYTSGG [Peptide C]
- reactivity to sera of patients with HCV compared to sera of patients with HBV and healthy donors [3]: significantly react
- Percentage of Positive Cases (%) [3]: 47%
- The Number of Positive Cases [3]: 14
- reactivity in ELISA Assay to sera of patients with HBV [4]: negative
- γ-IFN(pg/ml serum) (γ-IFN): 24.81 ± 5.8 pg/ml serum
- IL-10(pg/ml serum) (IL-10): 26.926 ± 5.8 pg/ml serum
- reactivity in ELISA Assay to sera of healthy donors (sera of healthy donors): negative
- IL-4(pg/ml serum) (IL-4): 31.22 ± 5.0 pg/ml serum
